Experimental data: patent US9089578B2, “Method of treating neuroendocrine tumors” (Niiki Pharma Acquisition Corp. 2, priority 2010, dated 2015)

Key:
[1] = test system: Stage IV Carcinoid tumor of the small bowel; experiment: Prior chemo regimens of the carcinoid patient (history); type: in vivo, human; settings: December 2009 to March 2010
Excerpt: (§1) In a human clinical trial conducted in the US, a person with Stage IV Carcinoid tumor of the small bowel (a neuroectodermal tumor or NET) was selected to undergo treatment of sodium trans-[tetrachlorobis(1H-indazole)ruthenate(III)]. They previously had 2 surgeries: an exploratory lap (diagnosis of neuroendocrine tumor) in June 2008, and a partial surgical resection of mass in October 2008. The second surgery was followed by chemoembolization of residual tumor masses for palliative treatment in October 2008 and in November 2008. Systemic chemotherapy with capecitibine was administered between July and August 2009. In August 2009, therapy was changed to octreotide (Sandostatin LAR), but this was discontinued in November 2009.

[2] = test system: Stage IV Carcinoid tumor of the small bowel; experiment: Human clinical trial, carcinoid patient, tumor lesions by CT scan; type: in vivo; settings: for Size of tumor lesion by CT scan, Left periaortic LN: baseline 2.5; for Size of tumor lesion by CT scan, Portacaval LN: baseline 3.0; for Size of tumor lesion by CT scan, Stomach/mesenteric LN: baseline 3.3; for Size of tumor lesion by CT scan, Esophageal LN: baseline 3.8
Excerpt: as §1
As the tumors were progressing, the patient started therapy on May 7, 2010 with intravenous injection of sodium trans-[tetrachlorobis(1H-indazole)ruthenate(III)] at 320 mg/m^2 based on body surface area (for a total dose of 630 mg per administration) once per week, on days 1, 8, and 15 of each 28-day cycle. At that time the patient had four metastatic sites originating from the primary tumor small intestine carcinoid. The four metastatic sites were in portacaval lymph node, left periaortic lymph node, stomach/mesenteric lymph node, and esophageal lymph node. CT scan of the tumors was done at the start of the treatment (baseline), and thereafter every two months.

[3] = test system: Merkel cell carcinoma cell line MKL-1; experiment: ATCC MTT Cell Proliferation Assay, MKL-1; type: cell-based, human; settings: MKL-1 cells, 72 hours post-treatment, read-out: IC50 (concentration that inhibits cell growth by 50%)
Procedure: (§2) To test the activities of sodium trans-[tetrachlorobis(1H-indazole)ruthenate(III)], ATCC's MTT Cell Proliferation Assay® was performed using human thyroid carcinoma cell line MB1 and Merkel cell carcinoma cell line MKL-1, both being neuroendocrine tumor (NET) cell lines. Stock cultures were allowed to grow to 70-80% confluence for this study. The anti-proliferative activity of sodium trans-[tetrachlorobis(1H-indazole)ruthenate(III)], against the indicated cell line was evaluated in vitro using the ATCC's MTT Cell Proliferation Assay (Catalog No. 30-1010K). […] The plates were left overnight at room temperature in the dark and was read on a plate reader using SoftMax® Pro (version 5.2, Molecular Devices).
(§3) The absorbance data was analyzed as follows: Absorbance values were converted to Percent of Control and plotted against test agent concentrations for IC50 calculations using SoftMax® Pro (version 5.2, Molecular Devices). […] Percent of Control values were calculated by dividing the absorbance values for each test well by the No Drug Control average (column 11 values; cells+vehicle control) and multiplying by 100. Plots of Compound Concentration versus Percent of Control were analyzed using the 4-parameter equation to obtain IC50 values and other parameters that describe the sigmoidal dose response curve. […]

[4] = test system: human thyroid carcinoma cell line MB1; experiment: ATCC MTT Cell Proliferation Assay, MB1; type: cell-based; settings: MB1 cells, 72 hours post-treatment, read-out: IC50 (concentration that inhibits cell growth by 50%)
Procedure: as §2, §3

[5] = test system: serum gastrin; experiment: Serum gastrin level by chemiluminescence method in gastrinoma patient; type: in vivo, human; settings: reduced from 8291
Excerpt: (§4) In the same human clinical trial described above, a person with Stage IV gastrinoma of the stomach, (a neuroectodermal tumor or NET) diagnosed in December 2006 was enrolled. They had multiple attempts to achieve disease control with hepatic artery embolization in […], in January 2007, and in September 2007. Localized radiotherapy with Yttrium-90 instillation to the right lobe of the liver in March 2009 and the left lobe in May 2009 was attempted. Yet the tumor was not controlled.
Serum gastrin levels were measured using chemiluminescence method during the treatment period.

[6] = test system: Stage IV gastrinoma of the stomach; experiment: Human clinical trial, gastrinoma patient, tumor response; type: in vivo; settings: 420 mg/m^2 i.v. days 1, 8, 15 of 28-day cycle, 6 cycles
Excerpt: as §4

[7] = End of 2nd Cycle (Jun. 24, 2010), 320 mg/m^2 i.v.
[8] = End of 4th Cycle (Aug. 19, 2010), 320 mg/m^2 i.v.
[9] = carcinoid patient, 320 mg/m^2 i.v. once per week

SMILES	outcome of prior therapy [1]	Size of tumor lesion by CT scan, Left periaortic LN [2, 7]	Size of tumor lesion by CT scan, Portacaval LN ([2]; End of 2nd Cycle (Jun. 24, 2010), 320 mg/m^2 i.v. days 1, 8, 15 of 28-day cycle)	Size of tumor lesion by CT scan, Stomach/mesenteric LN [2, 7]	Size of tumor lesion by CT scan, Esophageal LN [2, 7]	Size of tumor lesion by CT scan, Left periaortic LN [2, 8]	Size of tumor lesion by CT scan, Portacaval LN [2, 8]	Size of tumor lesion by CT scan, Stomach/mesenteric LN [2, 8]	Size of tumor lesion by CT scan, Esophageal LN [2, 8]	disease status on treatment ([2]; after 14 cycles, as of July 2011)	effect on the remaining three lesions [2, 9]	tumor regression in one lesion [2, 9]	serious adverse events ([2]; carcinoid patient, 320 mg/m^2 i.v., 14 cycles)	IC50 [3]	IC50 [4]	serum gastrin level reduced during the course of therapy [5]	best response [6]
C[C@@H](Oc1cc(-c2cnn(C3CCNCC3)c2)cnc1N)c1c(Cl)ccc(F)c1Cl [crizotinib]	disease progression																
[Cl][Ru-]([Cl])([Cl])[Cl].[Na+].c1ccc2[nH]ncc2c1.c1ccc2[nH]ncc2c1 [sodium trans-[tetrachlorobis(1H-indazole)ruthenate(III)]]		2.5	2.9	3.1	3.0	2.5	2.9	3.1	2.0	remains under control	stopped tumor growth	~50%	No serious adverse events have been observed	40.4 µM	73.7 µM	6120	stable disease
